Test results reported in ChEMBL document CHEMBL1149668, “Synthesis and cytotoxicity of desmethoxycallipeltin B: lack of a quinone methide for the cytotoxicity of callipeltin B” (Bioorg Med Chem Lett, 2007).

Test system: HeLa
Experiment: Cytotoxicity against HeLa cells by MTT […] assay
Assay type: functional, cell-based
Conditions: Homo sapiens

Row | Compound | IC50 [µM]
1 | CO[C@H](c1ccc(O)cc1)[C@H]1NC(=O)[C@H](CCC(N)=O)N(C)C(=O)[C@H](CC(C)C)NC(=O)[C@@H](CCCNC(=N)N)NC(=O)[C@@H]([C@@H](C)O)NC(=O)[C@H](NC(=O)[C@H]2NC(=O)[C@H](C)[C@@H]2C)[C@@H](C)OC(=O)[C@H](C)N(C)C1=O [CALLIPELTIN B] | 98
2 | CC(C)C[C@@H]1NC(=O)[C@@H](CCCNC(=N)N)NC(=O)[C@@H]([C@@H](C)O)NC(=O)[C@H](NC(=O)[C@H]2NC(=O)[C@H](C)[C@@H]2C)[C@@H](C)OC(=O)[C@H](C)N(C)C(=O)[C@@H](Cc2ccc(O)cc2)NC(=O)[C@H](CCC(N)=O)N(C)C1=O [DESMETHOXYCALLIPELTIN B] | 128
